Laboratory results taken from ChEMBL document CHEMBL1136999, “Discovery of novel phosphonate derivatives as hepatitis C virus NS3 protease inhibitors” (Bioorg Med Chem Lett, 2009).

Legend:
Hepatitis C virus = test: Antiviral activity against HCV in human HuH7 cells by replicon assay; format: functional, organism-based, Hepacivirus hominis; settings: Huh-7
[1] = Inhibition of HCV NS3 protease; design: species or system Hepacivirus hominis
[2] = Cytotoxicity against human HuH7 cells; format: cell-based, Huh-7
[3] = Apparent systemic clearance in dog at 1.1 mg/kg, iv relative to liver blood flow; format: ADME, organism-based, Canis lupus familiaris; design: dose 1.1 mg/kg, route intravenous; settings: in vivo
[4] = Oral bioavailability in dog at 2.7 mg/kg; format: ADME, organism-based, Canis lupus familiaris; settings: in vivo
[5] = Apparent permeability from apical to basolateral side in human Caco-2 cells; format: ADME, cell-based

Row | SMILES | EC50 (Hepatitis C virus) | IC50 [1] | CC50 [2] | clearance [3] | bioavailability [4] | Papp A→B [5]
1 | C=CC1C[C@]1(NC(=O)[C@@H]1C[C@@H](Oc2cc(-c3csc(NC(C)C)n3)nc3cc(OC)ccc23)CN1C(=O)[C@@H](NC(=O)OC1CCCC1)C(C)(C)C)P(=O)(O)OCC (stereo partly specified) | 360 nM | 7 nM | > 50000 nM | – | – | –
2 | C=CC1C[C@]1(NC(=O)[C@@H]1C[C@@H](Oc2cc(-c3csc(NC(C)C)n3)nc3cc(OC)ccc23)CN1C(=O)[C@@H](NC(=O)OC1CCCC1)C(C)(C)C)P(=O)(OCOC(=O)OCC1CC1)OCOC(=O)OCC1CC1 (stereo partly specified) | 41 nM | 85 nM | – | – | – | –
3 | C=CC1C[C@]1(NC(=O)[C@@H]1C[C@@H](Oc2cc(-c3csc(NC(C)C)n3)nc3cc(OC)ccc23)CN1C(=O)[C@@H](NC(=O)OC1CCCC1)C(C)(C)C)P(=O)(OCOC(=O)OCC)OCOC(=O)OCC (stereo partly specified) | 39 nM | 280 nM | – | 28.3 mL/min/kg | – | –
4 | C=CC1C[C@]1(NC(=O)[C@@H]1C[C@@H](Oc2cc(-c3csc(NC(C)C)n3)nc3cc(OC)ccc23)CN1C(=O)[C@@H](NC(=O)OC1CCCC1)C(C)(C)C)C(=O)O (stereo partly specified) | 6 nM | 3 nM | > 50000 nM | – | – | –
5 | C=CC1C[C@]1(NC(=O)[C@@H]1C[C@@H](Oc2cc(-c3csc(NC(C)C)n3)nc3cc(OC)ccc23)CN1C(=O)[C@@H](NC(=O)OC1CCCC1)C(C)(C)C)P(=O)(O)O (stereo partly specified) | 92 nM | 0.9 nM | > 50000 nM | – | 1% | 0.2 ×10⁻⁶ cm/s
